Our source for the IC50 values is patent publication US8614195B2, “Glycoside derivatives and uses thereof” (Novartis AG, priority 2011, dated 2013).

In one test the target is human SGLT1 (Homo sapiens (Human), UniProt P13866). In words: SGLT1 assay: analogous 14C-AMG uptake test with hSGLT1 expressed in CHO-K1 or HEK293 cells. The class given is cell-based. The following applies: n = 1-4. As to the method: (§1) The SGLT-2 assay is carried out as follows: CHO-hSGLT2 cells are cultivated in Ham's F12 Medium (BioWhittaker) with 10% foetal calf serum and 250 μg/mL zeocin (Invitrogen), and HEK293-hSGLT2 cells are cultivated in DMEM medium with 10% foetal calf serum and 250 μg/mL zeocin (Invitrogen). The cells are detached from the culture flasks by washing twice with PBS and subsequently treating with trypsin/EDTA. After the addition of cell culture medium the cells are centrifuged, resuspended in culture medium and counted in a Casy cell counter. Then 40,000 cells per well are seeded into a white, 96-well plate coated with poly-D-lysine and incubated overnight at 37° C., 5% CO2. The cells are washed twice with 250 μl of assay buffer (Hanks Balanced Salt Solution, 137 mM NaCl, 5.4 mM KCl, 2.8 mM CaCl2, 1.2 mM MgSO4 and 10 mM HEPES (pH 7.4), 50 μg/mL of gentamycin). 250 μl of assay buffer and 5 μl of test compound are then added to each well and the plate is incubated for a further 15 minutes in the incubator. 5 μl of 10% DMSO are used as the negative control. The reaction is started by adding 5 μl of 14 C— AMG (0.05 μCi) to each well. After 2 hours' incubation at 37° C., 5% CO2, the cells are washed again with 250 μl of PBS […] and then lysed by the addition of 25 μl of 0.1 N NaOH (5 min. at 37° C.). 200 μl of MicroScint20 (Packard) are added to each well and incubation is continued for a further 20 min at 37° C. After this incubation the radioactivity of the ^14C-AMG absorbed is measured in a Topcount (Packard) using a ^14C scintillation program.
To determine the selectivity with respect to human SGLT1 an analogous test is set up in which the cDNA for hSGLTI (Genbank Ace. No. NM000343) instead of hSGLT2 cDNA is expressed in CHO-K1 or HEK293 cells.
The title compounds of the Examples were evaluated in the above described assays and the results of which are collated in Table 1.

Test [1] deals with human sodium glucose co-transporter 2 (SGLT2) (Homo sapiens (Human), UniProt P31639). The test can be described thus: SGLT-2 assay: 14C-AMG uptake in CHO-hSGLT2 or HEK-hSGLT2 cells. It counts as cell-based. As to conditions: n = 1-4. As to the method: These cell lines transport ^14C-labelled alpha-methyl-glucopyranoside (^14C-AMG, Amersham) into the interior of the cell in sodium-dependent manner.
as §1

Setting [2] is: title compounds of the Examples (prodrugs).

Chain of human sodium glucose co-transporter 2 (SGLT2) (P31639 whole entry): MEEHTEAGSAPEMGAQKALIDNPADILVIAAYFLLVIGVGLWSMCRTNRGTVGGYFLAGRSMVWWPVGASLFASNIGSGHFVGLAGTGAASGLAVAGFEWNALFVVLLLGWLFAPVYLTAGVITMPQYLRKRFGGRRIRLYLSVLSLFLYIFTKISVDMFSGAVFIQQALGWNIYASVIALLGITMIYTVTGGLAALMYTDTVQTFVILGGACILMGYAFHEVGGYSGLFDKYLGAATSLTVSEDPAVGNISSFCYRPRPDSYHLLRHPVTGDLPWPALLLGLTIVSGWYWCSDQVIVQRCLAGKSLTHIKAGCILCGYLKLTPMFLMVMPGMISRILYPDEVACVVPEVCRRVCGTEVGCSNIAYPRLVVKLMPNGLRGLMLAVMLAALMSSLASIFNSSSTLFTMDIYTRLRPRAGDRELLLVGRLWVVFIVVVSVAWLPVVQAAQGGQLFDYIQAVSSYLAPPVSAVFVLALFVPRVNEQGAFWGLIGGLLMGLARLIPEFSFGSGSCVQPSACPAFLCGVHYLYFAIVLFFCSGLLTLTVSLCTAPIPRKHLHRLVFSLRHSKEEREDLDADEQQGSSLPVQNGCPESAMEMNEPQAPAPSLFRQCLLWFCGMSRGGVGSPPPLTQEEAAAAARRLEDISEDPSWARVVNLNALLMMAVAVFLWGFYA
Chain of human SGLT1 (P13866 whole entry): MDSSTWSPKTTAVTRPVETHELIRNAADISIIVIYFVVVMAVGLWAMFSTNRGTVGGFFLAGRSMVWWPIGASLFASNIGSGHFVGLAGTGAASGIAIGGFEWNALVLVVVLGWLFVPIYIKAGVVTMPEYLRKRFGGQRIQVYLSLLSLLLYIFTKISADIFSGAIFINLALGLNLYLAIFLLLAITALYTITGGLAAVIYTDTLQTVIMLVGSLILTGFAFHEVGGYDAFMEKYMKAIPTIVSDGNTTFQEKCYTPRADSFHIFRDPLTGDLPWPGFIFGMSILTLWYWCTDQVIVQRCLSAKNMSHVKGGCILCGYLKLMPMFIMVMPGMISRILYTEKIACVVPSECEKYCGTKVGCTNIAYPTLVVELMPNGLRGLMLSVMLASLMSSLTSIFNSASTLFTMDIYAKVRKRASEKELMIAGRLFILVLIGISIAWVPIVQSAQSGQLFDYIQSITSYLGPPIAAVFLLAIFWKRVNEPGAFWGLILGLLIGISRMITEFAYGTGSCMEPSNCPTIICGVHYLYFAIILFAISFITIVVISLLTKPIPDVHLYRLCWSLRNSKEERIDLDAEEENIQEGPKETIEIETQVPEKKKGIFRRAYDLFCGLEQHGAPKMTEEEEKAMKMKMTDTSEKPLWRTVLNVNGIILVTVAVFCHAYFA

As for `CCOP(=O)(OCC)OC[C@H]1O[C@@H](c2ccc(C3CC3)c(Cc3ccc4c(c3)OCCO4)c2)[C@H](O)[C@@H](O)[C@@H]1O` [Example 3a, Phosphoric acid (2R,3S,4R,5R,6S)-6-[4-cyclopropyl-3-(2,3-dihydro-benzo[1,4]dioxin-6-ylmethyl)-phenyl]-3,4,5-trihydroxy-tetrahydro-pyran-2-yl methyl ester diethyl ester], the concentration for half-maximal inhibition (IC50) – broadly, the concentration that inhibits the measured activity by half – at human SGLT1 (setting [2]) is 5650 nM; in test [1] (setting [2]) it was > 1000 nM.

`CCc1ccc([C@@H]2O[C@H](COC(=O)O[C@@H](C)c3ccccc3)[C@@H](O)[C@H](O)[C@H]2O)cc1Cc1ccc2c(c1)OCCO2` [Example 2g, Carbonic acid (2R,3S,4R,5R,6S)-6-[3-(2,3-dihydro-benzo[1,4]dioxin-6-ylmethyl)-4-ethyl-phenyl]-3,4,5-trihydroxy-tetrahydro-pyran-2-ylmethyl ester (S)-1-phenyl-ethyl ester]: the IC50 at human SGLT1 (setting [2]) came out at 1000 nM; in test [1] (setting [2]), 567 nM. Consider `CCOC(=O)OC[C@H]1O[C@@H](c2ccc(C3CC3)c(Cc3ccc4c(c3)OCCO4)c2)[C@H](O)[C@@H](O)[C@@H]1O` [Example 2a, Carbonic acid (2R,3S,4R,5R,6S)-6-[4-cyclopropyl-3-(2,3-dihydro-benzo[1,4]dioxin-6-ylmethyl)-phenyl]-3,4,5-trihydroxy-tetrahydro-pyran-2-ylmethyl ester ethyl ester], for which the IC50 turned out to be 308 nM on human SGLT1 (setting [2]) and 97 nM in test [1] (setting [2]). For `CCc1ccc([C@@H]2O[C@H](COC(=O)OCC3CC4CCC3C4)[C@@H](O)[C@H](O)[C@H]2O)cc1Cc1ccc2c(c1)OCCO2` (stereo partly drawn) [Example 2f, Carbonic acid bicyclo[2.2.1]hept-2-ylmethyl ester (2R,3S,4R,5R,6S)-6-[3-(2,3-dihydro-benzo[1,4]dioxin-6-ylmethyl)-4-ethyl-phenyl]-3,4,5-trihydroxy-tetrahydro-pyran-2-ylmethyl ester], the IC50 came out at 3440 nM at human SGLT1 (setting [2]) and 143 nM in test [1] (setting [2]). Take `COC(=O)OC[C@H]1O[C@@H](c2ccc(C3CC3)c(Cc3ccc4c(c3)OCCO4)c2)[C@H](O)[C@@H](O)[C@@H]1O` [Example 2, carbonic acid (2R,3S,4R,5R,6S)-6-[4-cyclopropyl-3-(2,3-dihydro-benzo[1,4]dioxin-6-ylmethyl)-phenyl]-3,4,5-trihydroxy-tetrahydro-pyran-2-ylmethyl ester methyl ester]: the IC50 is 35 nM on human SGLT1 (setting [2]) and 17.5 nM in test [1] (setting [2]). Regarding `OC[C@H]1O[C@@H](c2ccc(C3CC3)c(Cc3ccc4c(c3)OCCO4)c2)[C@H](O)[C@@H](O)[C@@H]1O` [(2S,3R,4R,5S,6R)-2-[4-Cyclopropyl-3-(2,3-dihydro-benzo[1,4]dioxin-6-ylmethyl)-phenyl]-6-hydroxymethyl-tetrahydro-pyran-3,4,5-triol], the IC50 stood at 9 nM against human SGLT1 and 2.2 nM in test [1] (parent compound of the prodrugs).

Regarding `CCOC(=O)OC[C@H]1O[C@@H](c2ccc(CC)c(Cc3ccc4c(c3)OCCO4)c2)[C@H](O)[C@@H](O)[C@@H]1O` [Example 2c, Carbonic acid (2R,3S,4R,5R,6S)-6-[3-(2,3-dihydro-benzo[1,4]dioxin-6-ylmethyl)-4-ethyl-phenyl]-3,4,5-trihydroxy-tetrahydro-pyran-2-ylmethyl ester ethyl ester], the half-inhibitory concentration (IC50) on human SGLT1 (setting [2]) was 197 nM; in test [1] (setting [2]), 27 nM.

Turning to `CCOP(=O)(OCC)OC[C@H]1O[C@@H](c2ccc(CC)c(Cc3ccc4c(c3)OCCO4)c2)[C@H](O)[C@@H](O)[C@@H]1O` [Example 3, phosphoric acid (2R,3S,4R,5R,6S)-6-[3-(2,3-dihydro-benzo[1,4]dioxin-6-ylmethyl)-4-ethyl-phenyl]-3,4,5-trihydroxy-tetrahydro-pyran-2-ylmethyl ester diethyl ester], the 50% inhibitory concentration (IC50) on human SGLT1 (setting [2]) was 814 nM; in test [1] (setting [2]), > 1000 nM. Regarding `CCc1ccc([C@@H]2O[C@H](CO)[C@@H](O)[C@H](O)[C@H]2O)cc1Cc1ccc2c(c1)OCCO2` [(2S,3R,4R,5S,6R)-2-[3-(2,3-Dihydro-benzo[1,4]dioxin-6-ylmethyl)-4-ethyl-phenyl]-6-hydroxymethyl-tetrahydro-pyran-3,4,5-triol], the IC50 against human SGLT1 is 22 nM. For `CCc1ccc([C@@H]2O[C@H](COC(=O)[C@H](N)C(C)C)[C@@H](O)[C@H](O)[C@H]2O)cc1Cc1ccc2c(c1)OCCO2` [Example 1, (R)-2-Amino-3-methyl-butyric acid (2R,3S,4R,5R,6S)-6-[3-(2,3-dihydro-benzo[1,4]dioxin-6-ylmethyl)-4-ethyl-phenyl]-3,4,5-trihydroxy-tetrahydro-pyran-2-ylmethyl ester], the IC50 at human SGLT1 (setting [2]) was 409 nM; in test [1] (setting [2]), 22.5 nM. In the case of `CC(C)COC(=O)OC[C@H]1O[C@@H](c2ccc(C3CC3)c(Cc3ccc4c(c3)OCCO4)c2)[C@H](O)[C@@H](O)[C@@H]1O` [Example 2b, Carbonic acid (2R,3S,4R,5R,6S)-6-[4-cyclopropyl-3-(2,3-dihydro-benzo[1,4]dioxin-6-ylmethyl)-phenyl]-3,4,5-trihydroxy-tetrahydro-pyran-2-ylmethyl ester isobutyl ester], the results for the half-maximal inhibitory concentration (IC50) (at human SGLT1 (setting [2]); in test [1] (setting [2])) were 338 nM and 186 nM, respectively.
